Measured values published in PMC12566971, “Polyprenylated Acylphloroglucinols from Hypericum rochelii and Hypericum olympicum—Cytotoxic Effects on Non-Tumorigenic Cell Lines and Antibacterial Potential” (Pharmaceuticals, 2025).
≈ marks a conversion by molar mass, not a printed value.

Tests used:
[1] = tested on: panel of cancer cell lines; parameters: method as in PMID 39454890; conditions: ref [48]; read-out: IC50 against a panel of cancer cell lines; cited from earlier work
breast cancer cell line = tested on: breast cancer cell line; parameters: method as in PMID 26865836; conditions: 24 h, ref [93]; cited from earlier work
HT-22 and SH-SY5Y cells = conditions: concentration where viability was restored to about 75%, ref [103]; read-out: Effective concentration 50 (EC50), neuroprotection; cited from earlier work
unspecified fibroblasts = conditions: up to 30 μg/mL for 24 h, ref [93]; cited from earlier work
[2] = tested on: Human gingival fibroblasts (HGF); assay: MTT assay for cytotoxicity; format: cell-based
Procedure: (§1) The MTT assay was performed according to Annex C, ISO 10993-5 [56] as in [116]. The panel of non-tumorigenic cell lines consisted of one murine (CCL-1 fibroblasts, which are recommended as a standard for cytotoxicity evaluation in Annex C of ISO 10993-5 [56]) and four human cell lines—HaCaT (immortalized epidermal keratinocytes), HGF (gingival fibroblasts), HEK-293 (embryonic cells from kidney epithelium), and HEPG2 (hepatoblastoma). Although technically a cancer cell line, HEPG2 is non-tumorigenic and retains many hepatocyte-related features in its proteome and a high degree of morphological and functional differentiation, also being a stage one hepatoblastoma.
(§2) CCL-1 was purchased from ATCC and HaCaT and HGF were bought from CLS Cell Lines Service (GmbH, Eppelheim, Germany). HEK-293 and HEPG2 were obtained from DSMZ. The cell culture medium for HaCaT and HEPG2 was Dulbecco’s Modified Eagle Medium (DMEM) with 4.5 g/L glucose (DMEM-HA). For HGF it was DMEM/F-12 (DMEM-12-A, a 1:1 mixture of DMEM and Ham’s F-12 medium). The cell medium for CCL-1 and HEK-293 was Eagle’s Minimum Essential Medium (MEM) (MEM-A). Ten percent heat-inactivated fetal bovine serum (FBS) was added to all media but to the one for the CCL-1 cells, to which 10% heat-inactivated horse serum was added. All media were supplemented with 2 mM L-glutamine and Penicillin/Streptomycin (Pen/Strep, 100×). The cell culture media, sera, and additives were from Capricorn Scientific (Düsseldorf, Germany).
(§3) GraphPad Prism software version 9 (GraphPad Software Inc., San Diego, CA, USA) was used to calculate the IC50 values from the MTT assays as in [116], as well as the MTC values, and the ELISA standard curves. The MTC values are, according to ISO 10993-5, the maximum concentration at which at least 70% of the cells are viable (nonlin fit, range).

[3] = tested on: Human embryonic kidney-293 (HEK-293); assay: MTT assay for cytotoxicity; format: cell-based
Procedure: as §1, §2, §3

CCL-1 = assay: MTT assay for cytotoxicity; format: cell-based, murine
Procedure: as §1, §2, §3

Staphylococcus aureus [4] = conditions: ref [4],[29]; cited from earlier work
Streptococcus pyogenes = conditions: ref [4],[29]; cited from earlier work
HEPG2 = assay: MTT assay for cytotoxicity; format: cell-based, human
Procedure: as §1, §2, §3

HaCaT = assay: MTT assay for cytotoxicity; format: cell-based, human
Procedure: as §1, §2, §3

HEK-293 cells = assay: Colony-forming unit assay; format: cell-based, human; conditions: for Percentage of colonies, HEK-293: untreated control = 100%
Procedure: (§4) The CFU was also performed according to ISO 10993-5 [56]. Briefly, the cell lines were seeded at a concentration like for the MTT assay in 6-well plates, treated with the chosen agents and left for a 48 h exposure. Then, the cells were trypsinized, and pre-calculated 20 to 100 µL from the cell suspension was added to a sterile Roswell Park Memorial Institute (RPMI) medium (RPMI-A, Capricorn Scientific), containing 20% of the respective cell culture medium for each cell line but with a final concentration of FBS and L-glutamine of 40–42% and 0.8–1.2 mM, respectively, 0.2% NaHCO3 (S6297, Merck Sigma-Aldrich, Saint Louis, MI, USA), and 0.8% methylcellulose (M0512, Merck Sigma-Aldrich) for viscosity. The viscous cell solution was vortexed for 10 s and dispensed in an equal number of cells per well in 6-well plates (1.2 mL per well) in triplicate for each concentration of treatment. HaCaT and HEK-293 were seeded at a concentration of 2500 cells per mL, CCL-1 and HEPG2—2000 cells per mL, and HGF—1000 cells per mL. The plates were incubated for 6 to 10 days, and when the colonies reached 20 to 50 cells per colony, 100 µL MTT salt solution was added to each well. After half an hour, the stained colonies were counted manually using a microscope.

HaCaT cells = assay: Colony-forming unit assay; format: cell-based, human; conditions: for Colonies per well for HaCaT cells: mean of three wells; for Percentage of colonies, HaCaT: untreated control = 100%
Procedure: as §4

[5] = tested on: Methicillin-Resistant S. aureus (MRSA); conditions: ref [4],[29]; cited from earlier work
CCL-1 cells = assay: Colony-forming unit assay; format: cell-based, murine; conditions: for Percentage of colonies, CCL-1: untreated control = 100%
Procedure: as §4

Staphylococcus aureus [6] = assay: MIC and MBC evaluation (broth microdilution, agar plate assay); format: cell-based
Procedure: The MIC and MBC assessment on the pathogenic bacteria and the candidate probiotic lactic acid bacteria was carried out by the broth microdilution assay (BMD) and the agar plate assay, respectively, as described in [4]. The metabolic (dehydrogenase) activity of the lactic acid bacteria was assessed as described in [4].
P. aeruginosa PAO1 ATCC 15692 was purchased from the American Type Cell Culture Collection (ATCC, Manassas, VA, USA). S. mutans DSM 20523 was bought from the German Collection of Microorganisms and Cell Cultures (DSMZ GmbH, Braunschweig, Germany). All other bacteria and strains were purchased as described in [4].

Enterococcus faecalis = conditions: ref [4],[29]; cited from earlier work

In the case of O=c1c(-c2c(O)cc(O)c3c(=O)cc(-c4ccc(O)cc4)oc23)c(-c2ccc(O)cc2)oc2cc(O)cc(O)c12 [I3-II8-biapigenin], the IC50 [1] is given as 107 to 198 µM.
For N.N.[Cl][Pt][Cl] [cisplatin], the “IC50 for a breast cancer cell line” value (breast cancer cell line) is listed as 20 µg/mL.
For c1cc2c(cc1[C@H]1OC[C@H]3[C@@H]1CO[C@@H]3c1ccc3c(c1)OCO3)OCO2 [sesamine], the EC50 (HT-22 and SH-SY5Y cells) is given as 2.85 µM.
For Cc1cc(O)c2c(=O)c3c(O)cc(O)c4c5c(O)cc(O)c6c(=O)c7c(O)cc(C)c8c1c2c(c34)c(c78)c65 [hypericin], the “IC50 for a breast cancer cell line” value (breast cancer cell line) is given as 5 µg/mL and the “Effect on cell survival of fibroblasts” value (unspecified fibroblasts) is given as “did not have a significant effect”.
For COc1ccc(C(=O)CCc2c(OC)cc(O)cc2OC)cc1 [4-hydroxy-2,6,4′-trimethoxydihydrochalcone], the EC50 (HT-22 and SH-SY5Y cells) is listed as 1.48 µM.
For CC(C)=CCC[C@]1(C)[C@@H](CC=C(C)C)C[C@]2(C)C(=O)C(CC=C(C)C)=C(O)[C@@]1(C(=O)C(C)C)C2=O [Hyperpolyphyllirin/hyperibine J], the “Maximum tolerated concentration (MTC), HGF” value [2] was 10.47 µg/mL, the “IC50, HGF” value ([2]; MTT assay) was 12.41 µg/mL (≈ 25.7 µM) and the IC50 ([2]; converted to µM) was 25.7 µM. For the same compound, the “Maximum tolerated concentration (MTC), HEK-293” value [3] was 0.46 µg/mL, the “IC50, HEK-293” value ([3]; MTT assay) was 0.79 µg/mL (≈ 1.64 µM) and the IC50 ([3]; converted to µM) was 1.64 µM. For the same compound, the “Maximum tolerated concentration (MTC), CCL-1” value (CCL-1) was 4.56 µg/mL, the “IC50, CCL-1” value (CCL-1; MTT assay) was 7.07 µg/mL (≈ 14.6 µM) and the IC50 (CCL-1; converted to µM) was 14.7 µM. For the same compound, the “MIC on bacteria, S. aureus” value (Staphylococcus aureus [4]) was 2 µg/mL (≈ 4.14 µM), the “MIC on bacteria, S. pyogenes” value (Streptococcus pyogenes) was 31 µg/mL (≈ 64.2 µM) and the “Maximum tolerated concentration (MTC), HEPG2” value (HEPG2) was 5.13 µg/mL. For the same compound, the “IC50, HEPG2” value (HEPG2; MTT assay) was 14.33 µg/mL (≈ 29.7 µM), the IC50 (HEPG2; converted to µM) was 29.7 µM and the “Maximum tolerated concentration (MTC), HaCaT” value (HaCaT) was 0.75 µg/mL. For the same compound, the “IC50, HaCaT” value (HaCaT; MTT assay) was 2.29 µg/mL (≈ 4.74 µM), the IC50 (HaCaT; converted to µM) was 4.74 µM and the “Colonies per well for HEK-293 cells” value (HEK-293 cells; 1/2 × IC50, 48 h exposure) was 110. The “Percentage of colonies, HEK-293” value (HEK-293 cells; 1/2 × IC50) was 89%, the “Colonies per well for HEK-293 cells” value (HEK-293 cells; 2 × IC50, 48 h exposure) was 67 and the “Percentage of colonies, HEK-293” value (HEK-293 cells; 2 × IC50) was 54%. For the same compound, the “Colonies per well for HEK-293 cells” value (HEK-293 cells; IC50, 48 h exposure) was 91, the “Percentage of colonies, HEK-293” value (HEK-293 cells; IC50) was 73% and the “Colonies per well for HaCaT cells” value (HaCaT cells; 1/2 × IC50, 48 h exposure) was 143. The “Percentage of colonies, HaCaT” value (HaCaT cells; 1/2 × IC50) was 259%, the “Colonies per well for HaCaT cells” value (HaCaT cells; 2 × IC50, 48 h exposure) was 58 and the “Percentage of colonies, HaCaT” value (HaCaT cells; 2 × IC50) was 105%. The “Colonies per well for HaCaT cells” value (HaCaT cells; IC50, 48 h exposure) was 133, the “Percentage of colonies, HaCaT” value (HaCaT cells; IC50) was 241% and the “MIC on bacteria, MRSA” value [5] was 8 µg/mL (≈ 16.6 µM). For the same compound, the “Colonies per well for CCL-1 cells” value (CCL-1 cells; 1/2 × IC50, 48 h exposure) was 162, the “Percentage of colonies, CCL-1” value (CCL-1 cells; 1/2 × IC50) was 111% and the “Colonies per well for CCL-1 cells” value (CCL-1 cells; 2 × IC50, 48 h exposure) was 113. For the same compound, the “Percentage of colonies, CCL-1” value (CCL-1 cells; 2 × IC50) was 77%, the “Colonies per well for CCL-1 cells” value (CCL-1 cells; IC50, 48 h exposure) was 116 and the “Percentage of colonies, CCL-1” value (CCL-1 cells; IC50) was 79%. The “Minimal bactericidal concentration (MBC), Staphylococcus aureus” value (Staphylococcus aureus [6]) was 94 µg/mL (≈ 195 µM), the “MBC/MIC ratio, S. aureus” value (Staphylococcus aureus [6]; bactericidal if ≤ 4, bacteriostatic if > 4) was 47 and the MBC (Staphylococcus aureus [6]; read-out: Minimal bactericidal concentration (MBC), Staphylococcus aureus) was 194 µM (≈ 93.6 µg/mL). For the same compound, the “MIC on bacteria, E. faecalis” value (Enterococcus faecalis) was 8 µg/mL (≈ 16.6 µM).
